Data from patent US3954737A, “Atropisomeric ansa ring compounds” (University of Illinois Foundation, priority 1974, dated 1976).

What was measured:
[1] = molecular target: E.Coli RNA Polymerase (Escherichia coli, UniProt P0A8V2); test: Bacterial RNA polymerase inhibition; assay type: biochemical; parameters: concentration or dose not given beside the values; conditions: pH 7.9, 30°C, 15 min
Text: (§1) Tables II, III and IV below respectively set forth activities of representative atropisomeric forms of ansa ring compounds of the invention relative to the "normal" isomeric forms in the following assays: (A) reverse transcriptase (RNA-directed DNA polymerase); (B) bacterial RNA polymerase; (C) B. subtilis bacterial inhibition; (D) S. lutea bacterial inhibition; and, inhibition of numerous other bacterial strains.
The assay for bacterial RNA polymerase followed the procedure of Reusser (J. Bacteriol, 105, 580 (1971)). Assay mixtures were prepared containing in a total volume of 0.25 ml: Tris-hydrochloride buffer, pH 7.9, 5 μmoles; MgCl2, 1 μmole; mercaptoethanol, 3 μmoles; MnCl2, 0.25 μmole; quanosine triphosphate, cytidine triphosphate, uridine triphosphate, 0.1 μmole each; adenosine triphosphate 8-^14 C, 0.1 μmole containing 0.05 μCi; dAT, 0.2 units; polymerase, ~35 μg. The reaction mixtures were incubated at 30°C for 15 min.

[2] = test system: K. pneumoniae; test: K. pneumoniae growth inhibition; assay type: cell-based
Experimental: (§2) Assays for inhibition of other bacterial strains were carried out according to standard uniform procedures.

[3] = test system: S. pasteurianum; test: S. pasteurianum growth inhibition; assay type: cell-based
Experimental: as §2

[4] = test system: Reverse Transcriptase; test: Reverse transcriptase (RNA-directed DNA polymerase) inhibition; assay type: biochemical; parameters: concentration or dose not given beside the values
Text: as §1
The assay and work-up conditions for reverse transcriptase analysis were essentially those described by Brockman, et al., (Nature, 230, 249, (1971)), except for eliminating the phosphate from the washing solution (10 percent trichloroacetic acid).

[5] = test system: E. coli; test: E. coli growth inhibition; assay type: cell-based
Experimental: as §2

[6] = test system: P. aeruginosa; test: P. aeruginosa growth inhibition; assay type: cell-based
Experimental: as §2

[7] = test system: S. lutea; test: S. lutea bacterial inhibition; assay type: cell-based; conditions: brain heart broth, 37°, 16-18 hours
Experimental: The assay for S. lutea inhibition was as follows. Water-soluble preparations were dissolved in brain heart infusion broth (Difco) to 1 mg./ml. Water-insoluble preparations were dissolved (or suspended) in dimethylformamide to 10 mg./ml. and diluted with brain heart broth to 1 mg./ml. Two-fold serial dilutions were made with broth starting with 1 mg./ml. with final volumes of 0.1 ml. per dilution. Overnight bacterial cultures were diluted 1:20,000 with brain heart and 0.1 ml. of diluted culture was added to each dilution of antibiotic (final total volume was 0.2 ml.). This was all done in plastic microtest plates (Microtest II Tissue Culture Plate, Bioquest). The plates were incubated at 37° for 16-18 hours and zones of inhibition were recorded.

[8] = test system: P. vulgaris; test: P. vulgaris growth inhibition; assay type: cell-based
Experimental: as §2

[9] = test system: S. aureus; test: S. aureus growth inhibition; assay type: cell-based
Experimental: as §2

[10] = test system: B. cereus; test: B. cereus growth inhibition; assay type: cell-based
Experimental: as §2

[11] = test system: P. oxalicum; test: P. oxalicum growth inhibition; assay type: cell-based
Experimental: as §2

[12] = test system: S. schottmuelleri; test: S. schottmuelleri growth inhibition; assay type: cell-based
Experimental: as §2

[13] = test system: B. subtilis; test: B. subtilis bacterial inhibition, zone of inhibition (paper disc on agar); assay type: cell-based, B. subtilis UC 564; conditions: 1/2 inch paper discs, 0.08 ml per disc
Experimental: The assay for B. subtilis bacterial inhibition was obtained on plates with B. subtilis UC 564 spores in agar with the following composition per liter:
After autoclaving, 10 ml. of 20 percent glucose was added. The seeding rate was approximately 10^9 spores per liter. Test solutions were applied to 1/2 inch paper discs (Schleicher & Schuell 740E) with 0.08 ml. per disc. Zones of inhibition were recorded.

[14] = test system: M. avium; test: M. avium growth inhibition; assay type: cell-based
Experimental: as §2

E.Coli RNA Polymerase, sequence (P0A8V2 whole entry): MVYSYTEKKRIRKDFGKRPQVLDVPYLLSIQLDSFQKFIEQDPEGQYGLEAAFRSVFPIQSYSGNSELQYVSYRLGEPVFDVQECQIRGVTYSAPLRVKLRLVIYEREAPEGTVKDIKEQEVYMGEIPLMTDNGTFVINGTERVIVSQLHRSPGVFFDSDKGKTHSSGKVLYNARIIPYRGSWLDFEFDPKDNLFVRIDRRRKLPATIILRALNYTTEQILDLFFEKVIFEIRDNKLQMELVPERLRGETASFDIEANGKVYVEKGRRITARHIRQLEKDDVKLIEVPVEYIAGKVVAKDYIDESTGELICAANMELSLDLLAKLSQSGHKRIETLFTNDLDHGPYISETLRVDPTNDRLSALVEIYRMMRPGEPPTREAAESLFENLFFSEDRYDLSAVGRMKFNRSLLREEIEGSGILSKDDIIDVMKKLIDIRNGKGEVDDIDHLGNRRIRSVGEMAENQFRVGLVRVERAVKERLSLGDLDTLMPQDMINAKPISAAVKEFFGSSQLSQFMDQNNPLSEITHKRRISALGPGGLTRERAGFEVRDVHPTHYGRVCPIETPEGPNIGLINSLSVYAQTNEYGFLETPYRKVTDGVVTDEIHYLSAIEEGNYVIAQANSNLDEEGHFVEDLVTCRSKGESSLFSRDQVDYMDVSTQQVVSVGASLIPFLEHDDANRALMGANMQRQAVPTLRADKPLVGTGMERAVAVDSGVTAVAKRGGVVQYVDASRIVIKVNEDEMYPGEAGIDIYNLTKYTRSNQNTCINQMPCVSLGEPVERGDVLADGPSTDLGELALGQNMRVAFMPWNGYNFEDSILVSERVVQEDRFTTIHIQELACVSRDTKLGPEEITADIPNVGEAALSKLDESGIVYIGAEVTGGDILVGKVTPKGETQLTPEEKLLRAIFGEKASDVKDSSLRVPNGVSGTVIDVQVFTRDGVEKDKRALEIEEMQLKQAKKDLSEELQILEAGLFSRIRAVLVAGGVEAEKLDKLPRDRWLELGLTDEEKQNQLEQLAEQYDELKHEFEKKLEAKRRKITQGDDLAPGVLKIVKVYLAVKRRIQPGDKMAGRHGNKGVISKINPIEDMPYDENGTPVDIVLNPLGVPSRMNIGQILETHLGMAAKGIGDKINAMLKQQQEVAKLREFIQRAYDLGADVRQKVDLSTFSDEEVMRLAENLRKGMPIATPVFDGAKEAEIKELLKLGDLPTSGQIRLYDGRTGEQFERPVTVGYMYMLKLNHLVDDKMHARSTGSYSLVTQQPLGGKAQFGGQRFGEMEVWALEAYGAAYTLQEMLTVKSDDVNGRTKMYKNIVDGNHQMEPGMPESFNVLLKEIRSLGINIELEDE
E.Coli RNA Polymerase, sequence (P0A8T7 whole entry partner): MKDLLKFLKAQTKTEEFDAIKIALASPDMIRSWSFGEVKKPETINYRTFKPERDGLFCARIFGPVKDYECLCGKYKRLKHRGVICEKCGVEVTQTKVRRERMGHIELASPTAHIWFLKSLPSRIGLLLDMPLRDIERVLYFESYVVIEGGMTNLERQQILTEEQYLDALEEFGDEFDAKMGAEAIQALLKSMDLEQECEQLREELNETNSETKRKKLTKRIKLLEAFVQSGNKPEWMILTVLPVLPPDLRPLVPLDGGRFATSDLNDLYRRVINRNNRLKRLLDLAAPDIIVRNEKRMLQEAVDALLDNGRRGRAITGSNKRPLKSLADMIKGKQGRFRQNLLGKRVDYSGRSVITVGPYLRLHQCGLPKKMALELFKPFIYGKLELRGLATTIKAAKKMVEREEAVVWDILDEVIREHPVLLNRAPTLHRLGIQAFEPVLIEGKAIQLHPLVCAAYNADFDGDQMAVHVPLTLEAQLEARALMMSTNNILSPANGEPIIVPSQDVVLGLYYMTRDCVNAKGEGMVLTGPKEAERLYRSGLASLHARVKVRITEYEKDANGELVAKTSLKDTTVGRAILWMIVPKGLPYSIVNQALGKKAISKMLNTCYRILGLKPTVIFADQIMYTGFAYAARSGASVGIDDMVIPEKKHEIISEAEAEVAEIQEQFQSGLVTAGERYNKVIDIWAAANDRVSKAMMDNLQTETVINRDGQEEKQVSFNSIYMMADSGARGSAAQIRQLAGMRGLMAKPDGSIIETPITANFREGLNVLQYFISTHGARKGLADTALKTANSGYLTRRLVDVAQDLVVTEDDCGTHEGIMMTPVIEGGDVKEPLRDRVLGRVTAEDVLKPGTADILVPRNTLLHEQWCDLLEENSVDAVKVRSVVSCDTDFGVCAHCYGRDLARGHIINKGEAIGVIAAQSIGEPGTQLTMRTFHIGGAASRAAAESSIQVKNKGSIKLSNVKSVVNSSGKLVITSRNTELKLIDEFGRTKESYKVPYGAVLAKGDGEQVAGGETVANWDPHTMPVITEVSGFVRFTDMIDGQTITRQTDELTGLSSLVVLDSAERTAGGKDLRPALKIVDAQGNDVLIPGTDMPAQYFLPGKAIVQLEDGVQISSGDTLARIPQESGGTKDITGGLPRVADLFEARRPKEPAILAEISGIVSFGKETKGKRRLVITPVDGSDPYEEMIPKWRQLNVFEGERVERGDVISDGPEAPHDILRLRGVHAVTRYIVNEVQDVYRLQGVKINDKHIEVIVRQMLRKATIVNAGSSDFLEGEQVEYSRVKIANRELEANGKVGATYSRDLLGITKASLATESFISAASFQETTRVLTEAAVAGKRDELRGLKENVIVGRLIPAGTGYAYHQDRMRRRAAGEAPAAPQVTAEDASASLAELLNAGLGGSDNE
E.Coli RNA Polymerase, sequence (P0A7Z4 whole entry partner): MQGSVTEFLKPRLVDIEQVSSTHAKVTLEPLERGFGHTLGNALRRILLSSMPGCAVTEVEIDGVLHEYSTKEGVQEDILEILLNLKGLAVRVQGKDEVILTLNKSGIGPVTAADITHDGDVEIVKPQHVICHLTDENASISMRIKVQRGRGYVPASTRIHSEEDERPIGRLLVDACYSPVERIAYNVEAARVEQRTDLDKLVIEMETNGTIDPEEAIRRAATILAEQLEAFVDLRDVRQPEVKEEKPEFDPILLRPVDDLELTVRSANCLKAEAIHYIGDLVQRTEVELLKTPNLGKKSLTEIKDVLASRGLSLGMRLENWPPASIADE
E.Coli RNA Polymerase, sequence (P0A800 whole entry partner): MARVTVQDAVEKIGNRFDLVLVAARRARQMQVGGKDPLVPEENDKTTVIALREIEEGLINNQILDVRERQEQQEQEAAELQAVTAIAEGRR

atropisostreptovaricin Fc
E.Coli RNA Polymerase % Inhibition ([1]; Table III): 0%
Zone of Inhibition [2]: 0 mm.
Zone of Inhibition [3]: 0 mm.
Reverse Transcriptase % Inhibition ([4]; Table II): 54%
Zone of Inhibition [5]: 0 mm.
Zone of Inhibition [6]: 0 mm.
Zone of Inhibition [7]: 0 mm.
Zone of Inhibition [8]: 0 mm.
Zone of Inhibition [9]: 0 mm.
Zone of Inhibition [10]: 0 mm.
Zone of Inhibition [11]: 0 mm.
Zone of Inhibition [12]: 0 mm.
Zone of Inhibition [13]: 0 mm.
Zone of Inhibition [14]: 0 mm.

CC(=O)Oc1c(C)c2c(O)c3c1C1=C(OCOC1=C(C)C3=O)C(C)=CC(C)(O)C(O)C(C)C(O)C1C(=O)OC(C(C)/C=C\C=C(C)C(=O)N2)C(C)C1O (stereo not shown) [Streptovaricin Fc, streptovaricin Fc, reference compound]
E.Coli RNA Polymerase % Inhibition ([1]; Table III): 0%
Zone of Inhibition [2]: 0 mm.
Zone of Inhibition [3]: 0 mm.
Reverse Transcriptase % Inhibition ([4]; Table II): 68%
Zone of Inhibition [5]: 0 mm.
Zone of Inhibition [6]: 0 mm.
Zone of Inhibition [7]: 0 mm.
Zone of Inhibition [8]: 0 mm.
Zone of Inhibition [9]: 0 mm.
Zone of Inhibition [10]: 0 mm.
Zone of Inhibition [11]: 0 mm.
Zone of Inhibition [12]: 0 mm.
Zone of Inhibition [13]: 0 mm.
Zone of Inhibition [14]: 14 mm.

COC(=O)[C@@H]1[C@H](O)[C@H](C)[C@H](O)[C@H](C)/C=C\C=C(/C)C(=O)Nc2c(C)c(OC(C)=O)c3c(c2O)C(=O)C(C)=C2OCOC(=C23)/C(C)=C/[C@@](C)(O)[C@H](O)[C@@H](C)[C@H]1O [Streptovaricin C, streptovaricin C, reference compound]
E.Coli RNA Polymerase % Inhibition ([1]; Table III): 78%
Zone of Inhibition [2]: 21 mm.
Reverse Transcriptase % Inhibition ([4]; Table II): 31-53%
Zone of Inhibition [5]: 13 mm.
Zone of Inhibition [7]: 33 mm.
Zone of Inhibition [8]: 8 mm.
Zone of Inhibition [9]: 26 mm.
Zone of Inhibition [11]: 0 mm.
Zone of Inhibition [12]: 10 mm.
Zone of Inhibition [13]: 22 mm.
Zone of Inhibition [14]: 15 mm.

streptovaricin C triacetate cyclic bromobenzeneboronate [reference compound]
E.Coli RNA Polymerase % Inhibition ([1]; Table IIIA): 20%
Reverse Transcriptase % Inhibition ([4]; Table IIA): 57%

atropisostreptovaricin C triacetate cyclic bromobenzeneboronate [Atropisostreptovaricin C Triacetate Cyclic p-Bromobenzeneboronate]
E.Coli RNA Polymerase % Inhibition ([1]; Table IIIA): 46%
Reverse Transcriptase % Inhibition ([4]; Table IIA): 66%

atropisostreptovaricin C triacetate cyclic benzeneboronate
E.Coli RNA Polymerase % Inhibition ([1]; Table IIIA): 23%
Reverse Transcriptase % Inhibition ([4]; Table IIA): 77%

streptovaricin C triacetate cyclic benzeneboronate [reference compound]
E.Coli RNA Polymerase % Inhibition ([1]; Table IIIA): 2%
Reverse Transcriptase % Inhibition ([4]; Table IIA): 44%

COC(=O)C1C(O)C(C)C(O)C(C)/C=C/C=C(\C)C(=O)Nc2c(C)c(OC(C)=O)c3c(c2O)C(=O)C(C)=C2OCOC(=C23)/C(C)=C\C(C)(O)C(O)C(C)C1O (stereo not shown) [Atropisostreptovaricin C, atropisostreptovaricin C]
E.Coli RNA Polymerase % Inhibition ([1]; Table III): 50%
Zone of Inhibition [2]: 0 mm.
Zone of Inhibition [3]: 0 mm.
Reverse Transcriptase % Inhibition ([4]; Table II): 70%
Zone of Inhibition [5]: 0 mm.
Zone of Inhibition [6]: 0 mm.
Zone of Inhibition [7]: 28 mm.
Zone of Inhibition [8]: 0 mm.
Zone of Inhibition [9]: 20 mm.
Zone of Inhibition [10]: 9 mm.
Zone of Inhibition [11]: 0 mm.
Zone of Inhibition [12]: 0 mm.
Zone of Inhibition [13]: 14 mm.
Zone of Inhibition [14]: 20 mm.
